Source: US20110039787A1, “COMPOSITIONS, KITS AND METHODS FOR TREATING BENIGN PROSTATE HYPERPLASIA” (priority 2009, published 2011)
Square brackets hold non-standard residues; d marks the D form. Peptide text beside a SMILES is read from it. * marks the point of attachment. dPhe(4-NHCONH2) = NC(=O)Nc1ccc(C[C@@H](N)C(=O)O)cc1; Dihydroorotyl(S) = O=C1C[C@@H](C(=O)*)NC(=O)N1; dPhe(4-Cl) = N[C@H](Cc1ccc(Cl)cc1)C(=O)O; Phe(4-NH2) = Nc1ccc(C[C@H](N)C(=O)O)cc1; d2Nal = N[C@H](Cc1ccc2ccccc2c1)C(=O)O; Lys(iPr) = CC(C)NCCCC[C@H](N)C(=O)O; d3Pal = N[C@H](Cc1cccnc1)C(=O)O

Columns and labels:
men with BPH [1] = assay: IPSS questionnaire (sum of scores), clinical trial in BPH patients; format: in vivo
Protocol: (§1) For each patient, the following parameters were measured or assessed (using the methods discussed below), at time points of screening day 0 (e.g., −7 days, “baseline”), day 14, day 28, and day 42:
After the initial 6-week treatment period of the exploratory study had been completed, a 12-month follow-up period looking at long-term efficacy commenced. Interim data of the main efficacy variables (IPSS, IPSS Global QoL, prostate volume, urinary flow, and post-void residual volume—measured as set out below) after 6 months' follow-up are also presented herein at Tables 1, 2, 3, and FIG. 1b. FIG. 1b also includes IPSS data at 9 and 12 months.
The IPSS was developed in 1991 by the American Urological Association to assess the severity of urinary symptoms related to BPH (Barry, M. J., et al., The American Urological Association symptom index for benign prostatic hyperplasia. The Measurement Committee of the American Urological Association. J Urol, 1992. 148(5): p. 1549-57; discussion 1564). The IPSS has been widely used in clinical studies, has undergone extensive validation, and its psychometric properties are well documented in both the original version (containing a 1-month recall) as well as the ‘acute’ version used in this study (containing a one-week recall). The WHO recommended the use of this instrument for the evaluation of BPH, and it is considered to be the internationally accepted, standard questionnaire for assessing lower urinary tract symptoms.
The patients completed the IPSS questionnaire to evaluate their urinary symptoms. The IPSS is a patient-administered questionnaire containing seven items to evaluate symptoms of urinary obstruction (i.e., incomplete emptying, frequency, hesitancy, urgency, weak stream, straining, nocturia) over the preceding week. Each urinary symptom question is assigned points from 0 to 5 indicating increasing severity of the particular symptom. The total score can therefore range from 0 to 35 (0-7: mildly symptomatic; 8-19: moderately symptomatic; 20-35: severely symptomatic). A reduction in total score over the treatment period is indicative of prostate symptom improvement.

men with BPH [2] = assay: Peak (maximal) urinary flow by flowmetry; format: in vivo
Protocol: as §1
2) Efficacy Endpoints—the measured Peak Urinary Flow, Post-void Residual Volume, and Prostate Volume.
Peak urinary flow was determined by flowmetry using the Uropower device (Wiest, World of Medicine AG, Germany). The device fulfilled the International Continence Society standards for maximum urinary flow. The measurement of urinary flow was done in a sitting position.
The Qmax is the maximal urinary flow rate. It is a traditional parameter used in BPH trials and is a good indicator of degree of bladder outlet obstruction (BOO).

[3] = 16+16 mg, Month 6 follow up, n=6
[4] = 32+32 mg, Month 6 follow up, n=7
[5] = all treatment groups (50 patients), Day 42
[6] = across all patient groups, Day 42

CC(=O)N[C@H](Cc1ccc2ccccc2c1)C(=O)N[C@H](Cc1ccc(Cl)cc1)C(=O)N[C@H](Cc1cccnc1)C(=O)N[C@@H](CO)C(=O)N[C@@H](Cc1ccc(NC(=O)[C@@H]2CC(=O)NC(=O)N2)cc1)C(=O)N[C@H](Cc1ccc(NC(N)=O)cc1)C(=O)N[C@@H](CC(C)C)C(=O)N[C@@H](CCCCNC(C)C)C(=O)N1CCC[C@H]1C(=O)N[C@H](C)C(N)=O [Degarelix, D-Alaninamide, N-acetyl-3-(2-naphthalenyl)-D-alanyl-4-chloro-D-phenylalanyl-3-(3-pyridinyl)-D-alanyl-L-seryl-4-[[[(4S)-hexahydro-2,6-dioxo-4-pyrimidinyl]carbonyl]amino]-L-phenylalanyl-4-[(aminocarbonyl)amino]-D-phenylalanyl-L leucyl-N6-(1-methylethyl)-L-lysyl-L-prolyl] (Ac-[d2Nal][dPhe(4-Cl)][d3Pal]S[Phe(4-NH2)](Dihydroorotyl(S))[dPhe(4-NHCONH2)]L[Lys(iPr)]P[dA]-NH2)
Improvements in mean sum of IPSS scores (men with BPH [1]; 32 mg and 32+32 mg groups, 9 and 12 months (FIG. 1b)): still indicated
Mean change from baseline in IPSS score, mean (SD) (men with BPH [1]; 32 mg s.c. (Day 0), Day 14, N=12): −7.8 (8.7)
Percentage responders (decrease in IPSS of at least 30% as compared to baseline) (men with BPH [1]; 32 mg, Day 42): 92%
Mean IPSS score, mean (SD) (men with BPH [1]; 32 mg, Day 42, N=12): 9.1 (6.2)
Mean change from baseline in IPSS score, mean (SD) (men with BPH [1]; 32 mg, Day 42, N=12): −13.2 (6.6)
Mean change from baseline in IPSS score, mean (SD) (men with BPH [1]; 32 mg, Day 42, N=12, listed as degarelix): −13.2
Mean IPSS score, mean (SD) (men with BPH [1]; 32 mg, Month 6 follow up, n=7): 10.4 (6.3)
Mean change from baseline in IPSS score, mean (SD) (men with BPH [1]; 32 mg, Month 6 follow up, n=7): −11.6 (8.3)
Percentage responders (decrease in IPSS of at least 30% as compared to baseline) (men with BPH [1]; 32 mg, Month 6 follow up, n=7): 86%
Mean change from baseline in IPSS score, mean (SD) (men with BPH [1]; 64 mg s.c. (Day 0), Day 14, N=13): −8.0 (4.0)
Percentage responders (decrease in IPSS of at least 30% as compared to baseline) (men with BPH [1]; 64 mg, Day 42): 85%
Mean IPSS score, mean (SD) (men with BPH [1]; 64 mg, Day 42, N=13): 11.8 (5.9)
Mean change from baseline in IPSS score, mean (SD) (men with BPH [1]; 64 mg, Day 42, N=13): −10.0 (5.0)
Mean change from baseline in IPSS score, mean (SD) (men with BPH [1]; 64 mg, Day 42, N=13, listed as degarelix): −10.0
Mean IPSS score, mean (SD) (men with BPH [1]; 64 mg, Month 6 follow up, n=4): 16.0 (8.7)
Mean change from baseline in IPSS score, mean (SD) (men with BPH [1]; 64 mg, Month 6 follow up, n=4): −4.0 (3.6)
Mean change from baseline in IPSS score, mean (SD) (men with BPH [1]; 16+16 mg s.c. (Day 0 + Day 14), Day 14, N=13): −3.2 (5.4)
Percentage responders (decrease in IPSS of at least 30% as compared to baseline) (men with BPH [1]; 16+16 mg, Day 42): 54%
Mean IPSS score, mean (SD) (men with BPH [1]; 16+16 mg, Day 42, N=13): 11.6 (4.5)
Mean change from baseline in IPSS score, mean (SD) (men with BPH [1]; 16+16 mg, Day 42, N=13): −6.1 (4.6)
Mean change from baseline in IPSS score, mean (SD) (men with BPH [1]; 16+16 mg, Day 42, N=13, listed as degarelix): −6.1
Mean IPSS score, mean (SD) (men with BPH [1]; [3]): 16.3 (4.7)
Mean change from baseline in IPSS score, mean (SD) (men with BPH [1]; [3]): −2.5 (4.3)
Percentage responders (decrease in IPSS of at least 30% as compared to baseline) (men with BPH [1]; [3]): 33%
Mean change from baseline in IPSS score, mean (SD) (men with BPH [1]; 32+32 mg s.c. (Day 0 + Day 14), Day 14, N=12): −5.5 (5.0)
Percentage responders (decrease in IPSS of at least 30% as compared to baseline) (men with BPH [1]; 32+32 mg, Day 42): 83%
Mean IPSS score, mean (SD) (men with BPH [1]; 32+32 mg, Day 42, N=12): 8.6 (5.7)
Mean change from baseline in IPSS score, mean (SD) (men with BPH [1]; 32+32 mg, Day 42, N=12): −9.6 (4.7)
Mean change from baseline in IPSS score, mean (SD) (men with BPH [1]; 32+32 mg, Day 42, N=12, listed as degarelix): −9.6
Mean IPSS score, mean (SD) (men with BPH [1]; [4]): 6.7 (4.5)
Mean change from baseline in IPSS score, mean (SD) (men with BPH [1]; [4]): −12.6 (9.6)
Percentage responders (decrease in IPSS of at least 30% as compared to baseline) (men with BPH [1]; [4]): 86%
Number of patients categorised as "mild" (IPSS 0-7) (men with BPH [1]; [5]): 17 patients
Number of patients categorised as "moderate" (IPSS 8-19) (men with BPH [1]; [5]): 31 patients
Number of patients categorised as "severe" (IPSS 20-35) (men with BPH [1]; [5]): 2 patients
Mean maximal urinary flow (men with BPH [2]; 32 mg, Day 42 (baseline 11.7)): 11.2 mL/s
Mean maximal urinary flow (men with BPH [2]; 64 mg, Day 42 (baseline 9.1)): 11.9 mL/s
Mean maximal urinary flow (men with BPH [2]; 16+16 mg, Day 42 (baseline 10.0)): 10.1 mL/s
Mean maximal urinary flow (men with BPH [2]; 32+32 mg, Day 42 (baseline 9.7)): 12.2 mL/s
Number of patients in whom maximal urinary flow decreased compared to baseline (men with BPH [2]; [6]): 25 patients
Number of patients in whom maximal urinary flow increased compared to baseline (men with BPH [2]; [6]): 24 patients
Number of patients in whom maximal urinary flow remained unchanged (men with BPH [2]; [6]): 1 patient
